From ChEMBL document CHEMBL6134863, “Novel Mitochondria-Targeted Asymmetric Heptamethine Cyanine Dye for Cancer Targeted NIR Imaging and Potent Necrosis and Senescence Induction with Prolonged Retention” (J Med Chem, 2025) come the findings set out here.

The nature of data set [1]: Distribution coefficient, logD of compound. In kind it is physicochemical. Particulars: octanol/water.
A short description of data set [2]: Partition coefficient, logP of compound. Particulars: octanol/water. Type of data set: physicochemical.
A short description of data set [3]: Drug uptake in mouse 4T1 cells assessed as increase in green fluorescence intensity at 5 uM incubated for 30 mins by F-actin staining staining based microscopic analysis. In kind it is ADME, cell-based. The settings on record: 4t1, 0.5 h.
Data set [4] in a line: Ratio of drug level in tumor to muscle of BALB/c mouse implanted with mouse 4T1 cells at 0.5 mg/kg, iv measured at 12 to 24 hrs. In kind it is ADME, organism-based. The settings on record: in vivo, time 12-24 hrs.
Data set [5] can be described thus: Drug uptake in human NCI-H226 cells assessed as increase in red fluorescence intensity at 5 uM incubated for 30 mins by CY7 staining based microscopic analysis. Particulars: nci-h226, 0.5 h. Type of data set: ADME, cell-based.
Data set [6] is described as follows: Drug uptake in human NCI-H226 cells assessed as increase in green fluorescence intensity at 5 uM incubated for 30 mins by F-actin staining staining based microscopic analysis. In kind it is ADME, cell-based. Particulars: nci-h226, 0.5 h.
Data set [7] can be described thus: Drug accumulation in tumor to muscle of BALB/c mouse implanted with mouse 4T1 cells at 0.5 mg/kg, iv measured at 4 to 168 hrs. In kind it is ADME, organism-based. The settings on record: in vivo, time 4-168 hrs.
Data set [8] in a line: Drug uptake in mouse 4T1 cells assessed as increase in red fluorescence intensity at 5 uM incubated for 30 mins by CY7 staining based microscopic analysis. Particulars: 4t1, 0.5 h. Type of data set: ADME, cell-based.
A short description of data set [9]: Solubility of compound in DMSO-H2O. In kind it is physicochemical.
Data set [10] in a line: Photostability of compound in DMSO-H2O incubated for 1 hr irradiated with deuterium lamp by absorbance based analysis. In kind it is physicochemical. The settings on record: read-out: Stability.
A further data set deals with NCI-H226. As to the kind of experiment: Cytotoxicity against human NCI-H226 assessed as decrease in cell viability up to 10 uM incubated for 24 hrs by CCK-8 assay. In kind it is functional, cell-based. In general terms: Formazan colour is commonly taken as a measure of viable cells.

Calls of active or inactive are those of the source. No cut-off for these calls is given here.

A word on the logD: it is lipophilicity at a set pH, counting ionised and neutral species. Low values mean lower lipophilicity, high ones higher lipophilicity. As a reminder, the logP is the decadic logarithm of the partition coefficient of the neutral form, usually between octanol and water. Low readings indicate a more hydrophilic compound, high ones a more lipophilic compound. `COC(=O)CNC(=O)CCN1/C(=C/C=C2\CCCC(/C=C/C3=[N+](CCC(=O)NCC(=O)OC)c4ccc5ccccc5c4C3(C)C)=C2Cl)C(C)(C)c2c1ccc1ccccc21`: the logD in data set [1] was determined as 3.39. Further, in data set [2], the logP amounted to 6.18.
Regarding `COC(=O)CCC(=O)CNC(=O)c1ccc(CN2/C(=C/C=C3\CCCC(/C=C/C4=[N+](Cc5ccc(C(=O)NCC(=O)CCC(=O)OC)cc5)c5ccccc5C4(C)C)=C3Cl)C(C)(C)c3ccccc32)cc1.[Br-]`, the Drug uptake entry in data set [3], in [5], in data set [6], in [7] and in data set [8] was “Active” in each case. The Ratio in data set [4] is given as greater than 5. This molecule returned a logD in data set [1] of 4.48. The logP in data set [2] turned out to be 6.17.
`CC1(C)C(/C=C/C2=C(Cl)C(=C/C=C3/N(CCCOc4ccc(C(=O)O)cc4)c4ccc5ccccc5c4C3(C)C)/CCC2)=[N+](CCCOc2ccc(C(=O)O)cc2)c2ccc3ccccc3c21.[Br-]`: in data set [7], the Drug uptake entry was “Active”. Further, the logD in data set [1] stood at 4.19. The logP in data set [2] is 7.24.
On to `CC1(C)C(/C=C/C2=C(Cl)C(=C/C=C3/N(Cc4ccc(C(=O)O)cc4)c4ccc(N)cc4C3(C)C)/CCC2)=[N+](Cc2ccc(C(=O)O)cc2)c2ccc(N)cc21`, for which the logD in data set [1] was determined as 3.22. The molecule further had a logP in [2] of 5.6.
For `COC(=O)CCC(=O)CNC(=O)c1ccc(CN2/C(=C/C=C3\CCCC(/C=C/C4=[N+](Cc5ccc(C(=O)NCC(=O)CCC(=O)OC)cc5)c5ccc6ccccc6c5C4(C)C)=C3Cl)C(C)(C)c3c2ccc2ccccc32)cc1.[Br-]`, the Drug uptake entry in [7] was “Active”. In data set [1], this molecule yielded a logD of 5.28. In data set [2], this molecule came in with a logP of 7.21.
As for `CC(C)(C)OC(=O)Nc1ccc2c(c1)C(C)(C)C(/C=C/C1=C(Cl)C(=C/C=C3/N(Cc4ccc(C(=O)O)cc4)c4ccc(NC(=O)OC(C)(C)C)cc4C3(C)C)/CCC1)=[N+]2Cc1ccc(C(=O)O)cc1`, the logD in [1] worked out at 3.78. The same molecule returned a logP in data set [2] of 6.92.
Turning to `COC(=O)CNC(=O)c1ccc(CN2/C(=C/C=C3\CCCC(/C=C/C4=[N+](Cc5ccc(C(=O)NCC(=O)OC)cc5)c5ccc6ccccc6c5C4(C)C)=C3Cl)C(C)(C)c3c2ccc2ccccc32)cc1.[Br-]`, the Drug uptake result in data set [7] was “Active”. Besides, the logD in data set [1] was 5.6. Also, in data set [2], the log partition coefficient (logP) was determined as 7.23.
Broadly, the solubility is how much of the substance goes into solution per volume. Take `CC1(C)C(/C=C/C=C/C=C/C=C2/N(CCCOc3ccc(C(=O)O)cc3)c3ccc4ccccc4c3C2(C)C)=[N+](CCCOc2ccc(C(=O)O)cc2)c2ccc3ccccc3c21.[Br-]`: the solubility in data set [9] stood at 170 µg/mL. This molecule also showed a logD in data set [1] of 3.79. This molecule displayed a logP in data set [2] of 7.26.
Turning to `CC1(C)C(/C=C/C2=C(Cl)C(=C/C=C3/N(CCCCCC(=O)O)c4ccccc4C3(C)C)/CCC2)=[N+](CCCOc2ccc(C(=O)O)cc2)c2ccccc21.[Br-]`, the Drug uptake result in [3], in [5], in data set [6], in data set [7] and in [8] was “Active” in each case. Besides, the Ratio in data set [4] is listed as greater than 5. In data set [9], this molecule came in with a solubility of 170 µg/mL. For the same molecule, the pH-dependent lipophilicity (logD) in data set [1] was 4.23. This molecule also yielded a logP in [2] of 5.9.
As to `COC(=O)CNC(=O)c1ccc(OCCC[N+]2=C(/C=C/C3=C(Cl)C(=C/C=C4/N(Cc5ccc(C(=O)O)cc5)c5ccccc5C4(C)C)/CCC3)C(C)(C)c3ccccc32)cc1.[Br-]`, the Drug uptake entry in data set [3], in [5], in data set [6], in [7] and in [8] was “Active” each time. The Ratio in [4] was greater than 5. Further, in data set [1], the logD came to 4.3. The molecule also came in with a logP in data set [2] of 6.18.
In turn, `CC1(C)C(/C=C/C2=C(Cl)C(=C/C=C3/N(CCOc4ccccc4C(=O)O)c4ccc5ccccc5c4C3(C)C)/CCC2)=[N+](CCOc2ccccc2C(=O)O)c2ccc3ccccc3c21` registered a logD in [1] of 3.73. The same molecule showed a logP in data set [2] of 7.27.
Turning to `Cc1ccc2c(c1)C(C)(C)C(/C=C/C1=C(Cl)C(=C/C=C3/N(CCCOc4ccc(C(=O)O)cc4)c4ccc(C)cc4C3(C)C)/CCC1)=[N+]2CCCOc1ccc(C(=O)O)cc1.[Br-]`, in data set [7], the Drug uptake result was “Active”. In [1], the logD amounted to 4.02. The molecule further returned a logP in [2] of 6.41.
As for `CCN1/C(=C/C=C2\CCCC(/C=C/C3=[N+](Cc4ccc(C(=O)O)cc4)c4ccccc4C3(C)C)=C2Cl)C(C)(C)c2ccccc21.[Br-]`, the Drug uptake entry in data set [3] is recorded as “Not_active”; in data set [5], “Not_active”; in data set [6] it was “Not_active”; in data set [7], “Active”; in data set [8], “Not_active”. This molecule gave a logD in [1] of 4.24. In data set [2], this molecule registered a logP of 5.89.
In the case of `COC(=O)C(C)NC(=O)CCN1/C(=C/C=C2\CCCC(/C=C/C3=[N+](CCC(=O)NC(C)C(=O)OC)c4ccccc4C3(C)C)=C2Cl)C(C)(C)c2ccccc21` (stereo not drawn), the logD in data set [1] came out at 3.92. The molecule further showed a logP in data set [2] of 5.36.
Take `CC1(C)C(/C=C/C=C/C=C/C=C2\N(CCCCS(=O)(=O)O)c3ccc4ccccc4c3C2(C)C)=[N+](CCCCS(=O)(=O)[O-])c2ccc3ccccc3c21` [INDOCYANINE GREEN]: the remaining at 1 h in [10] was determined as 95.2%. Moreover, the result with NCI-H226 was Active.
`CC1(C)C(/C=C/C=C/C=C/C=C2/N(Cc3ccc(C(=O)O)cc3)c3ccc4ccccc4c3C2(C)C)=[N+](Cc2ccc(C(=O)O)cc2)c2ccc3ccccc3c21.[Br-]` registered a solubility in data set [9] of 170 µg/mL. The same molecule showed a logD in data set [1] of 3.59. In data set [2], the logP stood at 7.06.
As to `Cc1ccc2c(c1)C(C)(C)C(/C=C/C1=C(Cl)C(=C/C=C3/N(Cc4ccc(C(=O)O)cc4)c4ccc(C)cc4C3(C)C)/CCC1)=[N+]2Cc1ccc(C(=O)O)cc1.[Br-]`, the Drug uptake result in data set [7] is “Active”. The molecule further registered a logD in data set [1] of 4.74. Further, in data set [2], the logP is 6.14.
Consider `COC(=O)CNC(=O)c1ccc(OCCCN2/C(=C/C=C3\CCCC(/C=C/C4=[N+](CCCOc5ccc(C(=O)NCC(=O)OC)cc5)c5ccc6ccccc6c5C4(C)C)=C3Cl)C(C)(C)c3c2ccc2ccccc32)cc1.[Br-]`, for which the Drug uptake result in [7] is listed as “Active”. The same molecule showed a logD in data set [1] of 5.51. The molecule further returned a logP in [2] of 7.45.
